Measured values from ChEMBL document CHEMBL1201862, “PubChem BioAssay data set” (2004).
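Step 1: Grow cells in 96-well plates. Step 2: Expose to compound for 48 hours at 5 concentrations. Step 3: Interpolate endpoints linearly; if unreached, use highest concentration. Here, GI50 denotes the concentration required for 50% inhibition of growth.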 Calls of active or inactive are those of the source. No stated cut-off is given here; in the data, active = GI50 up to about 1.1 µM and inactive = higher.

Assays:
Experiment in all cases: inhibition of tumour cell growth, NCI panel, 48 h
[1] = tested on: NCI-H522
[2] = tested on: HT-29
[3] = tested on: KM12
[4] = tested on: OVCAR-8
[5] = tested on: SF-268
[6] = tested on: HCT-15
[7] = tested on: LXFL 529
[8] = tested on: HOP-62
[9] = tested on: CAKI-1
[10] = tested on: UACC-257
[11] = tested on: SF-295
[12] = tested on: SNB-19
[13] = tested on: MOLT-4
[14] = tested on: OVCAR-4
[15] = tested on: NCI-H23
[16] = tested on: LOX IMVI
[17] = tested on: HL-60
[18] = tested on: MDA-MB-435
[19] = tested on: SR
[20] = tested on: Hs-578T

Compound	GI50 [1]	GI50 [2]	GI50 [3]	GI50 [4]	GI50 [5]	GI50 [6]	GI50 [7]	GI50 [8]	GI50 [9]	GI50 [10]	GI50 [11]	GI50 [12]	GI50 [13]	GI50 [14]	GI50 [15]	GI50 [16]	GI50 [17]	GI50 [18]	GI50 [19]	GI50 [20]
COc1cc2cnc3c4cc(OC(C)C)c(OC)cc4ccc3c2cc1OC	> 100 µM (inactive)	> 100 µM (inactive)	> 100 µM (inactive)	> 100 µM (inactive)	> 100 µM (inactive)	> 100 µM	> 100 µM (inactive)	> 100 µM (inactive)	> 100 µM (inactive)	> 100 µM (inactive)	> 100 µM (inactive)	> 100 µM (inactive)	> 100 µM (inactive)	> 100 µM (inactive)	> 100 µM (inactive)					
CCC12CC[C@H](C#N)N3CCc4c(n(c5ccccc45)C(=O)C1)C32 (stereo partly drawn)		14.2 µM (inactive)	8.17 µM (inactive)	19.9 µM (inactive)	17.9 µM (inactive)	5.2 µM	16.6 µM (inactive)	22.9 µM (inactive)	12.6 µM (inactive)	14 µM (inactive)	12.4 µM (inactive)	> 10 µM (inactive)	15 µM (inactive)	12.1 µM (inactive)	15.4 µM (inactive)	14.1 µM (inactive)				
CCOC(=O)c1cn(Cc2ccccc2)c(=O)n1Cc1ccccc1	> 100 µM (inactive)	> 100 µM (inactive)	> 100 µM (inactive)	> 100 µM (inactive)	> 100 µM (inactive)	80.2 µM	> 100 µM (inactive)	> 100 µM (inactive)	77.1 µM (inactive)	> 100 µM (inactive)	67.1 µM (inactive)	> 100 µM (inactive)	35 µM (inactive)	> 100 µM (inactive)	> 100 µM (inactive)	> 100 µM (inactive)	6.93 µM (inactive)			
C/C(CN1C(=O)c2ccccc2C1=O)=N\NS(=O)(=O)c1cccc([N+](=O)[O-])c1	> 100 µM (inactive)	> 100 µM (inactive)	> 100 µM (inactive)	> 100 µM (inactive)	> 100 µM (inactive)	> 100 µM	> 100 µM (inactive)	> 100 µM (inactive)	> 100 µM (inactive)	> 100 µM (inactive)	> 100 µM (inactive)	> 100 µM (inactive)	> 100 µM (inactive)	> 100 µM (inactive)	> 100 µM (inactive)		> 100 µM (inactive)			
O=C1OC(=O)C23CSCC12C1C=CC3O1 (stereo not drawn)	> 100 µM (inactive)	> 100 µM (inactive)	> 100 µM (inactive)	> 100 µM (inactive)	> 100 µM (inactive)	> 100 µM	> 100 µM (inactive)	> 100 µM (inactive)	> 100 µM (inactive)	> 100 µM (inactive)	> 100 µM (inactive)	> 100 µM (inactive)	> 100 µM (inactive)		> 100 µM (inactive)	> 100 µM (inactive)	> 100 µM (inactive)			
c1ccc2sc(C3(N4CCCCC4)CCCC3)cc2c1	11.4 µM (inactive)	3.24 µM (inactive)	7.01 µM (inactive)	10.4 µM (inactive)	11.4 µM (inactive)	5.92 µM		15 µM (inactive)	18.1 µM (inactive)	14.6 µM (inactive)	11 µM (inactive)	13.8 µM (inactive)	3.52 µM (inactive)	9.02 µM (inactive)	4.06 µM (inactive)	17.9 µM (inactive)	4.69 µM (inactive)	14.9 µM (inactive)	0.838 µM (active)	14.1 µM (inactive)
C/C(CCn1[nH]c(=O)ccc1=O)=N\NC(=O)C(N)=O	> 100 µM (inactive)	> 100 µM (inactive)	> 100 µM (inactive)	> 100 µM (inactive)	> 100 µM (inactive)	> 100 µM	> 100 µM (inactive)	> 100 µM (inactive)	> 100 µM (inactive)	> 100 µM (inactive)	> 100 µM (inactive)	> 100 µM (inactive)		> 100 µM (inactive)	> 100 µM (inactive)	> 100 µM (inactive)	> 100 µM (inactive)			
O=C(c1ccsc1)c1cc2c(s1)C(=O)c1ccsc1C2=O	0.137 µM (active)	0.676 µM (active)	0.191 µM (active)	0.178 µM (active)	0.165 µM (active)	0.155 µM		0.168 µM (active)	0.499 µM (active)	0.174 µM (active)	0.174 µM (active)	0.177 µM (active)	0.435 µM (active)	0.177 µM (active)	0.137 µM (active)	0.0211 µM (active)	1.48 µM (inactive)	0.0271 µM (active)	1.87 µM (inactive)	0.209 µM (active)
